Measurements: patent publication US9492471B2, “Methods of treating a disease or disorder associated with Bruton'S Tyrosine Kinase” (Celgene Avilomics Research, Inc., priority 2013, dated 2016)
Like-named read-outs stand apart in the source and are kept apart here.

Columns and labels:
Assay in all cases: HotSpot kinase profiling
Format in all cases: biochemical
CDK2/cyclin A = target: T1, CDK2/cyclin A (Homo sapiens, UniProt P24941)
T1 construct: purchased Reaction Biology Corp
Summary of the method: (§1)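 P81 filtration radiometric readout; 2 h incubation at room temperature; 0.1% phosphoric acid wash; DMSO negative control; % inhibition, mean of replicate runs.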

FGFR4 = target: T2, FGFR4 (Homo sapiens, UniProt P22455)
T2 construct: purchased Reaction Biology Corp
T2 sequence (P22455 22-802): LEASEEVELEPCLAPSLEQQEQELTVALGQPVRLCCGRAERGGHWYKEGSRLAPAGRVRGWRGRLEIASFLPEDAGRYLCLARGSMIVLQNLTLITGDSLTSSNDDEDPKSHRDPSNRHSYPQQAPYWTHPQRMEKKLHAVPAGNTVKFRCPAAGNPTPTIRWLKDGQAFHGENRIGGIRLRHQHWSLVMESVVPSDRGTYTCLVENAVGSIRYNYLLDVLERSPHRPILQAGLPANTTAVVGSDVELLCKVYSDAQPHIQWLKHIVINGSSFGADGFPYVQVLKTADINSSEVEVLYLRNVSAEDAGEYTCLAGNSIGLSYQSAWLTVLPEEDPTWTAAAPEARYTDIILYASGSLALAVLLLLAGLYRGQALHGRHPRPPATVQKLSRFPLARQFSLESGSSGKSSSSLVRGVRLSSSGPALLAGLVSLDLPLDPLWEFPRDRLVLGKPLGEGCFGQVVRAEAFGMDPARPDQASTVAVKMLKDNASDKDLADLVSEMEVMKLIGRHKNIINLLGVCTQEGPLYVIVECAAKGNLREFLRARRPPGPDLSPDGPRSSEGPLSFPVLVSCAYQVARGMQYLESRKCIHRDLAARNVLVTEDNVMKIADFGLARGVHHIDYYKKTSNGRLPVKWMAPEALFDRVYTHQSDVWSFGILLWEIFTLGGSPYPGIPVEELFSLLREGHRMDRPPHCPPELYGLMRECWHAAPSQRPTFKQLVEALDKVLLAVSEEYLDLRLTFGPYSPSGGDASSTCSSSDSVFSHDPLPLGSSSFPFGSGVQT
Summary of the method: as §1

c-Src = target: T3, c-Src (Homo sapiens, UniProt P12931)
T3 construct: purchased Reaction Biology Corp
T3 sequence (P12931 whole entry): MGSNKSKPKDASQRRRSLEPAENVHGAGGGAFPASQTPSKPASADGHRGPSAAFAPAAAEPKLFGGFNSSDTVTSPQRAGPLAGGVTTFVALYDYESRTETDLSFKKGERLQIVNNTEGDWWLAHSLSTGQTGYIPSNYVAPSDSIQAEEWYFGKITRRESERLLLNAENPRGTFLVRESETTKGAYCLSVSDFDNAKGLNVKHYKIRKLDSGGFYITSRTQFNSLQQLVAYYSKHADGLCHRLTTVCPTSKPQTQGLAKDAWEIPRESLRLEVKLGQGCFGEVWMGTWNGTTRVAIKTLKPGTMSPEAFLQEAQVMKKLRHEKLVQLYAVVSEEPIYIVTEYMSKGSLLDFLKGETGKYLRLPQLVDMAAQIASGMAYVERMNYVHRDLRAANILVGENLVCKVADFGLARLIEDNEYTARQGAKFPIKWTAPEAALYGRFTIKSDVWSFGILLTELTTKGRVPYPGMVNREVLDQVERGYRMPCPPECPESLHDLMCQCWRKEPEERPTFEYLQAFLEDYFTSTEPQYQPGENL
Summary of the method: as §1

CDK9/cyclin T1 = target: T4, CDK9/cyclin T1 (Homo sapiens, UniProt P50750)
T4 construct: purchased Reaction Biology Corp
T4 sequence (P50750 whole entry): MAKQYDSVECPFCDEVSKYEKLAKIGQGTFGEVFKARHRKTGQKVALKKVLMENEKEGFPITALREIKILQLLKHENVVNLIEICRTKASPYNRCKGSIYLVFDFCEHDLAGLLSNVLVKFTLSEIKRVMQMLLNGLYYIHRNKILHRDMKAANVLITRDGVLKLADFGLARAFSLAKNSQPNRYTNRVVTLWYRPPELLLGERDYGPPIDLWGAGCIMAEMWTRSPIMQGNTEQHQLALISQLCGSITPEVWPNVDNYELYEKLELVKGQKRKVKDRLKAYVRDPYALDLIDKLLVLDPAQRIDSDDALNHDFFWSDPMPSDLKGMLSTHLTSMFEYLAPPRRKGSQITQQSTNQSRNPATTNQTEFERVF
T4 sequence (O60563 whole entry partner): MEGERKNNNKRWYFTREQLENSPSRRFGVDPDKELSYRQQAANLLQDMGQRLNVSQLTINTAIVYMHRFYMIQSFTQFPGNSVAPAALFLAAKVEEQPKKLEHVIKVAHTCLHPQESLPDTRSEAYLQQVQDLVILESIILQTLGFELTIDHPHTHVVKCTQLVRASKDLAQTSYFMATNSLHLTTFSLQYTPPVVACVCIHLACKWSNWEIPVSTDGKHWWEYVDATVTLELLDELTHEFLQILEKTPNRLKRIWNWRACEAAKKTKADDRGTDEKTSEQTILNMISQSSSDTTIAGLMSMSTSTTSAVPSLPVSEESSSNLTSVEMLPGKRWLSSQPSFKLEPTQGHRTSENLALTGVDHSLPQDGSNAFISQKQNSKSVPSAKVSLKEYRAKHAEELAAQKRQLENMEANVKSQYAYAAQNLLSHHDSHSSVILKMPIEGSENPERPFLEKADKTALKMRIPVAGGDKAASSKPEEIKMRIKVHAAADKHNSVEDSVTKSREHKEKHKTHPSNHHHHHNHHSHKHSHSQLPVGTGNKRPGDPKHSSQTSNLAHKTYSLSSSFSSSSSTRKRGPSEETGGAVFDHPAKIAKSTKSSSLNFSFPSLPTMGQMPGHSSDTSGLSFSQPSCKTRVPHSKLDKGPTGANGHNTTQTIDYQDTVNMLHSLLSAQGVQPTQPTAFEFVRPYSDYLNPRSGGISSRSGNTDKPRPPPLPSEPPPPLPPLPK
Summary of the method: as §1

TRKC = target: T5, TRKC (Homo sapiens, UniProt Q16288)
T5 construct: purchased Reaction Biology Corp
T5 sequence (Q16288 32-839): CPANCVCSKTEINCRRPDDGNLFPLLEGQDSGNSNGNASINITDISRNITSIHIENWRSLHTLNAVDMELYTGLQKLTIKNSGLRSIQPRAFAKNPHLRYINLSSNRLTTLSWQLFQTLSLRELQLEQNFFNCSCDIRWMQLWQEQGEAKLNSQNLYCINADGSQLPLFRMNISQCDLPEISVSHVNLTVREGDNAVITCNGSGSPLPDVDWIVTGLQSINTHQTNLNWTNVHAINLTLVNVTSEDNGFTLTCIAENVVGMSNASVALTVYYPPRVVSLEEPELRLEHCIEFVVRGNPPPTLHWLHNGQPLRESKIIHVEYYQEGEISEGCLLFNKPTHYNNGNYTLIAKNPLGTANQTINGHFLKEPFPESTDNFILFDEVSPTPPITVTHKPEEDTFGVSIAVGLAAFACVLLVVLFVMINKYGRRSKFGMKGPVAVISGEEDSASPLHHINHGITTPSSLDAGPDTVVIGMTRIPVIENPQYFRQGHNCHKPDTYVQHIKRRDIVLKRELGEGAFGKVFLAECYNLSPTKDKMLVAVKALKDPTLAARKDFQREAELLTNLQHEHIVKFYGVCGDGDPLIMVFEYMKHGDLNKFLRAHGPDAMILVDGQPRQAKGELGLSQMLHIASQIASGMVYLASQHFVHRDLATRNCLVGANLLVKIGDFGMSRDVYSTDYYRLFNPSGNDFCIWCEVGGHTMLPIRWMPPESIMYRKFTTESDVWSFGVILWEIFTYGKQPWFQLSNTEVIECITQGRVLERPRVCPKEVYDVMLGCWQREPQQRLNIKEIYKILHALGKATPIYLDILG
Summary of the method: as §1

ULK2 = target: T6, ULK2 (Homo sapiens, UniProt Q8IYT8)
T6 construct: purchased Reaction Biology Corp
T6 sequence (Q8IYT8 1-1036): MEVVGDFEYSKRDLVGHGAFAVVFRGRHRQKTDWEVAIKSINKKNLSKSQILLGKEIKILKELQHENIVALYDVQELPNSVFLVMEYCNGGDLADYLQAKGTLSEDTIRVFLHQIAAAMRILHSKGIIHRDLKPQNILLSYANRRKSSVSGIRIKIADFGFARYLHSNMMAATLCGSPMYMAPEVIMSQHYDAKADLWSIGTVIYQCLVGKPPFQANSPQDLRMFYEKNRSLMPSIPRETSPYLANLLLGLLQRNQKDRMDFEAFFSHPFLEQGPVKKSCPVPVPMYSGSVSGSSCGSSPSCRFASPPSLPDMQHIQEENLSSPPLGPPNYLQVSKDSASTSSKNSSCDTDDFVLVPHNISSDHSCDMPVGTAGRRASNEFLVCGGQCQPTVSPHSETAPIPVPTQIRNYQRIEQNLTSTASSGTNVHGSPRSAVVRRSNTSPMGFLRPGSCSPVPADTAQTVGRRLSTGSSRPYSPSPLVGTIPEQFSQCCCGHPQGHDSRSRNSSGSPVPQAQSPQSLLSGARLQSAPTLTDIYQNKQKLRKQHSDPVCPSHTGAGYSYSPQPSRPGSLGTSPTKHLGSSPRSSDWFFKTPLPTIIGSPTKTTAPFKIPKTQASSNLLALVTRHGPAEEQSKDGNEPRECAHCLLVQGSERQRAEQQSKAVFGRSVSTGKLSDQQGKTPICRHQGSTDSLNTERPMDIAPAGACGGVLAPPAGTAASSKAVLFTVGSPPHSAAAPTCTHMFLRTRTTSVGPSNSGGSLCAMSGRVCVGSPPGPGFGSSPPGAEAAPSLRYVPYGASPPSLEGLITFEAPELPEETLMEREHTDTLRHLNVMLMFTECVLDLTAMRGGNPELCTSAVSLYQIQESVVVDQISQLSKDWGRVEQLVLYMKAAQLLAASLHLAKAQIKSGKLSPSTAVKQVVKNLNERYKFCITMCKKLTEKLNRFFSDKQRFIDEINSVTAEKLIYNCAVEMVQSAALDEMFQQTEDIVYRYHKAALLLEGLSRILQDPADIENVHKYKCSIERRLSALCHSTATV
Summary of the method: as §1

IRAK1 = target: T7, IRAK1 (Homo sapiens, UniProt P51617)
T7 construct: purchased Reaction Biology Corp
T7 sequence (P51617 whole entry): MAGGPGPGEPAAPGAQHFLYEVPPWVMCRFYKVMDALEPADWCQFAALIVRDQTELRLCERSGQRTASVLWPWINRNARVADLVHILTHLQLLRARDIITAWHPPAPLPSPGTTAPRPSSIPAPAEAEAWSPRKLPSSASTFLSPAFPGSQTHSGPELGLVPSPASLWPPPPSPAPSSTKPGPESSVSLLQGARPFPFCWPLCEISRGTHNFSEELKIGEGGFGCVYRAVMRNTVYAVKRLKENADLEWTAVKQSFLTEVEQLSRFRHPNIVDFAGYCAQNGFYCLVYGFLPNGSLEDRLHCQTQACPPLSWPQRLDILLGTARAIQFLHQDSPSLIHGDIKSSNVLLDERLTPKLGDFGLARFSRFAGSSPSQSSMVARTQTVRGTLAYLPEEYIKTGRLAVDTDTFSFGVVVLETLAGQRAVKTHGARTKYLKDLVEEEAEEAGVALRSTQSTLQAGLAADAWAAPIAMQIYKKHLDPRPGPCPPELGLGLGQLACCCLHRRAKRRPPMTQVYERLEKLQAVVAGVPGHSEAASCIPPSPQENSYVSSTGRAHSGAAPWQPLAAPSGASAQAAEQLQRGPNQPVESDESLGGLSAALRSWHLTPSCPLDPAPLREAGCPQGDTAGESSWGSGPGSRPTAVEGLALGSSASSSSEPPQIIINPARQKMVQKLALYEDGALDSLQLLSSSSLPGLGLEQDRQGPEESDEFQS
Summary of the method: as §1

IKKe/IKBKE = target: T8, IKKe/IKBKE (Homo sapiens, UniProt Q14164)
T8 construct: purchased Reaction Biology Corp
T8 sequence (Q14164 1-716): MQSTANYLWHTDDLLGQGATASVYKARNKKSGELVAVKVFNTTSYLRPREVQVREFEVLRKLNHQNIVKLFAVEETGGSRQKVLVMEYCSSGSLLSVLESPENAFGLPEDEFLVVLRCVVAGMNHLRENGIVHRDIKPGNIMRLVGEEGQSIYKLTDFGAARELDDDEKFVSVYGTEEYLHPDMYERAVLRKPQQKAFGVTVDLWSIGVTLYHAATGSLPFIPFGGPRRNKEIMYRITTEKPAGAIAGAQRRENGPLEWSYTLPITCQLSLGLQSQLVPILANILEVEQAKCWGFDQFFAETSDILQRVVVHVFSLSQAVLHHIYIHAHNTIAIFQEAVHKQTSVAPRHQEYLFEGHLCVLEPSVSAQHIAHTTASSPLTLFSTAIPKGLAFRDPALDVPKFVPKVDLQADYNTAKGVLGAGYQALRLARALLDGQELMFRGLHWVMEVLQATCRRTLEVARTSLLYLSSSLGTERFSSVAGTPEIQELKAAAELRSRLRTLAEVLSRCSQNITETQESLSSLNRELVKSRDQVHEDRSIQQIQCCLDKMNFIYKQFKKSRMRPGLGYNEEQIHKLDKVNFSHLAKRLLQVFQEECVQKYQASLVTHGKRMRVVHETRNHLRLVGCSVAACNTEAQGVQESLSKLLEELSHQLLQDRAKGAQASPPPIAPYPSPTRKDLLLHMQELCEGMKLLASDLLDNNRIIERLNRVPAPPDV
Summary of the method: as §1

CAMK1a = target: T9, CAMK1a (Homo sapiens, UniProt Q14012)
T9 construct: purchased Reaction Biology Corp
T9 sequence (Q14012 whole entry): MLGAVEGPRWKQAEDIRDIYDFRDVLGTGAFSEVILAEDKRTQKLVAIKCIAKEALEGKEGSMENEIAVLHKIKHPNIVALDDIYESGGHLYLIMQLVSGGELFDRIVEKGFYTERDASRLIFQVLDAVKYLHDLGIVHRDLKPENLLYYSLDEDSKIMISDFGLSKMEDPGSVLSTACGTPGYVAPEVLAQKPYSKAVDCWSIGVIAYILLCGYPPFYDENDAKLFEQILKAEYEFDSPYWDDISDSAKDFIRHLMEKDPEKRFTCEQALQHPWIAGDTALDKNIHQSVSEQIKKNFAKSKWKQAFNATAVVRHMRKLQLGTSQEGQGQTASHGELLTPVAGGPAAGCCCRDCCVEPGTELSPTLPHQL
Summary of the method: as §1

[1] = read-out: % Enzyme Activity (relative to DMSO controls) Run 1
[2] = read-out: % Enzyme Activity (relative to DMSO controls) Run 2

SMILES: C=CC(=O)Nc1cccc(Nc2nc(Nc3ccc(OCCOC)c(F)c3)ncc2F)c1 [Compound 2]
- inhibition at 3 µM (CDK2/cyclin A): 13.7%
- remaining activity at 3 µM (CDK2/cyclin A; [1]): 85.8%
- remaining activity at 3 µM (CDK2/cyclin A; [2]): 86.9%
- inhibition at 3 µM (FGFR4): 35.1%
- remaining activity at 3 µM (FGFR4; [1]): 66.3%
- remaining activity at 3 µM (FGFR4; [2]): 63.4%
- inhibition at 3 µM (c-Src): 72%
- remaining activity at 3 µM (c-Src; [1]): 28.2%
- remaining activity at 3 µM (c-Src; [2]): 27.9%
- inhibition at 3 µM (CDK9/cyclin T1): 10.3%
- remaining activity at 3 µM (CDK9/cyclin T1; [1]): 87.8%
- remaining activity at 3 µM (CDK9/cyclin T1; [2]): 91.5%
- inhibition at 3 µM (TRKC): 66.3%
- remaining activity at 3 µM (TRKC; [1]): 35.1%
- remaining activity at 3 µM (TRKC; [2]): 32.3%
- inhibition at 3 µM (ULK2): -5.74%
- remaining activity at 3 µM (ULK2; [1]): 102%
- remaining activity at 3 µM (ULK2; [2]): 109%
- inhibition at 3 µM (IRAK1): 24.6%
- remaining activity at 3 µM (IRAK1; [1]): 76.5%
- remaining activity at 3 µM (IRAK1; [2]): 74.4%
- inhibition at 3 µM (IKKe/IKBKE): 21.8%
- remaining activity at 3 µM (IKKe/IKBKE; [1]): 78.3%
- remaining activity at 3 µM (IKKe/IKBKE; [2]): 78.2%
- inhibition at 3 µM (CAMK1a): -10.4%
- remaining activity at 3 µM (CAMK1a; [1]): 109%
- remaining activity at 3 µM (CAMK1a; [2]): 112%
